# Laboratory results from US20060189539A1, “Novel GnRH analogues with antitumour effects and pharmaceutical compositions thereof” (priority 1994, published 2006).
# Assays:
# MDA-MB-231 xenograft = assay: In vivo antitumour effect on MDA-MB-231 xenograft; set-up: species or system immunosuppressed CBA/Ca mice
# Method: The immunosuppression of mice was carried out by using the method of Steel et al. (1978).
# CBA/Ca female mice of about 6 weeks old were thymectomized and then, after one week, they were irradiated with 60Co (whole body irradiation; the lethal dose is 9.5 Gray). Within 24 hours 3 to 5×10^5 myelocytes were injected to the animals. Beneath the skin of the immunosuppressed mice 2×10^7 tumour cells or, in the case of later passages, about 2 mm^3 of tumour cells or in the case of later, additional passages about 2 mm^3 of tumour pieces were implanted. […] The treatment with steroid hormone was stopped by at least one week before beginning the investigation.
# Recent investigations have begun on 28 animals bearing MCF-7 xenograft .and on 28 animals bearing MDA-MB-231 xenograft. On animals bearing MCF-7 tumour the treatment was commenced in the 5th week following xeno-transplantation; the tumour volume was 205 to 225 mm^3. On animals bearing MDA-MB-231 tumour, the treatment was started in the 4th week after xeno-transplantation with a tumour volume of 140 to 150 mm^3. […] The control groups were daily treated with physiological saline s.c. (Each treated group consisted of 7 animals.)
# A more recent study was started on 28 animals bearing. MDA-MB-231 xenograft. The treatment was begun in the 4th or 5th week following xenotransplantation. The tumour volume was 0.165 to 0.194 cm3. […] (For treatment of the control group, see the preceding Examples). Each group consisted of 7 animals.
# [1] = tested on: MCF-7 and MDA-MB-231 cell lines; details: 30 μM
# Method: The procedure of treatment was as follows. After trypsinization the cells, 400,000 cells of MCF-7, MDA-MB-231 human mammary carcinoma, PC3 human prostate carcinoma or Ishikawa human endometrium tumour each were passed into Petri dishes of 10 cm in diameter. Starting from the day following transfer, the cells were treated with the substances to be tested in solution prepared with the nutrient medium during the exponential growth phase. The cultures were treated with 1 to 50 μM (calculated for the total volume of the culture) of MI-1544 GnRH antagonist, MI-1892 chicken GnRH antagonist or SJ-1004 GnRH antagonist analogues as well as synthetic lamprey GnRH-III hormone in every two days and the cell count was determined on the 7th day.
# ovulation of female rats = details: prolonged treatment for three cycles, even in high doses; cited from earlier work
# [2] = tested on: LH release from rat hypophysis; details: superfusion; cited from earlier work
# [3] = tested on: Ishikawa endometrium tumour cell culture; assay: Inhibition of colony formation (dose-survival), Example 48; format: cell-based, human; details: within the dose range used (1-50 μM)
# Description: (§1) MCF-7 human mammary carcinoma cell line was stabilized in 1973 by Soule et al. from the pleural fluid of a patient suffering from mammary carcinoma. MDA-MB-231 human mammary carcinoma cell line was isolated and stabilized by Cailleau et al. in 1974 similarly from pleural fluid. Both cell lines grow in monolayer. MCF-7 and MDA-MB-231 human mammary carcinoma cell lines are maintained in plastic flasks (Greiner), in Dulbecco-modified Eagle-MEM (DMEM, GIBCO) liquid nutrient medium containing 10% of fetal calf serum. MCF-7 cell line is estradiol receptor (ER)-positive containing proteins specifically binding GnRH. Thus, it represents, a useful model system for investigating the direct effect of GnRH mediated by the GnRH receptor. Being ER-negative and GnRH receptor-positive, MDA-MB-231 cell line is similarly suitable to study the direct effect of GnRH. PC3 human prostate carcinoma cell line was stabilized in cell culture by Kaighn et al. in 1979. The cells are of epithelial type and form compact colonies in clonogenic assays. The Ishikawa cell line originates from human endometrial adenocarcinoma [M. Nishida et al.: Acta Obstet. Gynecol. Jpn. 37, 1103-1111 (1985)], it is epithelial in its character and contains steroid-as well as GnRH receptors.
# (§2) The examination gives accurate information about the cell-damaging effect of the substance tested as a function of varying doses. The treatment was carried out once; the colonies formed from the surviving cells were counted after 8-12 days. […] A part of the arrested cells again entered the cycle, an other part of them might be destroyed (apoptosis). […] In the case of a dose-response investigation, colonies containing less than 15 cells were not counted. 300 cells were put into each Petri dishes of 3.5 cm in diameter. The treatment was once carried out 24 hours after setting, then the colonies formed were counted after 8-12 days. The cells were treated once after 24 hours with 1-50 μM of various GnRH analogues of Examples above or with 1-50 μM of GnRH-III, respectively. The percentages of inhibition obtained on MCF-7, MDA-MB-231, PC3 and Ishikawa cells, respectively, together with the dose of the active agent used are shown in Table VIII.
# [4] = tested on: PC3 prostate tumour cell culture; assay: as above; format: cell-based, human; details: 50 μM
# Description: as §1, §2
# [5] = tested on: MCF-7 human mammary carcinoma cell line; assay: as above; format: cell-based; details: 50 μM
# MCF-7 cells = assay: Inhibition of cell division (cell count), Example 49; format: cell-based, human; details: MCF-7 (2x); 30 μM
# Method: After being treated with trypsin, 300,000 each of MCF-7, MDA-MB-231, PC3 or Ishikawa cells, respectively, were passed into Petri dishes of 10 cm in diameter. Starting from the day following the setting, the cells were treated with 1-50 μM of the GnRH analogue in the exponential growth phase. During the experiment lasting for 5 days, the cells were treated in every two days with the peptide hormone dissolved in the nutrient medium, then the cell count was determined on the sixth day.
# [6] = 1 × 100 μg daily s.c., week 6 (Table V)
Compound,Effect on the rate of tumour growth (MDA-MB-231 xenograft; 100 μg daily s.c.),"Tumour volume as control (%) (MDA-MB-231 xenograft; 1 × 100 μg daily s.c., week 4)","Tumour volume as control (%) (MDA-MB-231 xenograft; 1 × 100 μg daily s.c., week 6)",Inhibition % (MDA-MB-231 xenograft; [6]) [%],Tumour volume as control (%) (MDA-MB-231 xenograft; [6]),Inhibition of cell proliferation [1],Inhibition of ovulation (ovulation of female rats),LH-releasing effect compared with human GnRH [2],Inhibition of colony formation [3],% Inhibition of colony formation [4] [%],% Inhibition of colony formation [5] [%],% Inhibition of cell proliferation (MCF-7 cells) [%]
"NCCCC[C@H](NC(=O)[C@H](Cc1c[nH]c2ccccc12)NC(=O)[C@H](CC(=O)O)NC(=O)[C@H](Cc1c[nH]cn1)NC(=O)[C@H](CO)NC(=O)[C@H](Cc1c[nH]c2ccccc12)NC(=O)[C@H](Cc1c[nH]cn1)NC(=O)[C@@H]1CCC(=O)N1)C(=O)N1CCC[C@H]1C(=O)NCC(N)=O [GnRH-III, reference compound]",did not inhibit the rate of tumour growth,85,85,15,85,40-39%,did not inhibit the ovulation,about thousand times weaker,did not inhibit,21,–,–
"Ac-D-Trp1,3,D-Cpa2,{Lys[n-poly(N-vinyl pyrrolidone-co-maleic acid)-]}5,[a-Asp(DEA)]6,D-Ala10-GnRH [Compound P-1892]",–,–,–,–,–,–,–,–,–,–,26,0
